Experimental findings from patent publication US20150072935A1, “COMPOSITION AND EXTERNAL APPLICATION FOR ACCELERATION OF MUSCLE DIFFERENTIATION AND IMPROVING OF MUSCLE MASS” (NEOPHARM CO., LTD., priority 2013, published 2015) are described below.

Numbered stars: 1 amine (or outer) side, 2 acyl side, 3 side chain; on linkers, the order of the positions; unused ones are H or OH. Square brackets hold non-standard residues; d marks the D form. Peptide text beside a SMILES is read from it. * marks the point of attachment. ξ: configuration not given here. Biotin = O=C1N[C@H]2[C@H](CS[C@H]2CCCCC(=O)*)N1; X1 = O=C(C(CC1=NCNC1)N[*:1])[*:2]; ξW = NC(Cc1c[nH]c2ccccc12)C(=O)O; ξF = NC(Cc1ccccc1)C(=O)O; ξK = NCCCCC(N)C(=O)O; ξA = CC(N)C(=O)O

For assay [1], the system named is C2C12 myoblast cells. As to the kind of experiment: Muscle differentiation promotion in C2C12 myoblast cells depending on differentiation time, western blotting. The assay is classed as cell-based. To be noted: differentiation medium with 2% horse serum, 50 uM, after 1, 2 and 3 days of differentiation induction, western blotting (FIG. 2). The protocol:
Undifferentiated C2C12 myoblast cells were cultured in a dish having a diameter of 100 mm using a DMEM with 10% fetal bovine serum (FBS). When the cells covered about 70% of an area, the cells were seeded in a 6-well dish at 8×10^5/well and cultured until the cells covered 90% of an area. Thereafter, muscle differentiation was induced using a differentiation medium with 2% horse serum. In this case, the cells were treated with a myotide (Chemical Formula 2, Incospharm Corp.) composition (0.1% DMSO in phosphate buffer saline) of the present invention at a content of 50 uM. After 1, 2, and 3 days of differentiation induction, cell lysis was performed using a lysis buffer, and a degree of muscle differentiation was confirmed by western blotting.

The subject of assay [2] is C2C12 myoblast cells. As to the kind of experiment: Muscle differentiation promotion in C2C12 myoblast cells, western blotting of muscle proteins, concentration dependence. The assay is classed as cell-based. To be noted: differentiation medium with 2% horse serum, 0, 10 and 100 uM, after 3 days of differentiation induction, western blotting (FIG. 1). The protocol: Undifferentiated C2C12 myoblast cells were cultured in a dish having a diameter of 100 mm using a Dulbecco's modified Eagle's medium (DMEM) with 10% fetal bovine serum (FBS). When the cells covered about 70% of an area, the cells were seeded in a 6-well dish at 8×10^5/well and cultured until the cells covered 90% of an area. Thereafter, muscle differentiation was induced using a differentiation medium with 2% horse serum. In this case, the cells were treated with a myotide (Chemical Formula 2, Incospharm Corp.) composition (0.1% DMSO in phosphate buffer saline) of the present invention at contents of 0, 10, and 100 uM. The differentiation medium was changed into a new differentiation medium containing […] every 24 hours, and after 3 days of differentiation induction, muscles cell lysis was performed using a cell lysis buffer, followed by western blotting. In order to confirm a degree of muscle differentiation, protein expression amounts of myosin heavy chain I, caveolin-3, and myogenin, which are representative protein of muscles, were observed. […] Therefore, the composition according to the present invention promoted muscle differentiation.

Take `CC(NC(=O)C(Cc1c[nH]c2ccccc12)NC(=O)C(CC1=NCNC1)NC(=O)CCCC[C@@H]1SC[C@@H]2NC(=O)N[C@@H]21)C(=O)NC(Cc1c[nH]c2ccccc12)C(=O)NC(Cc1ccccc1)C(=O)NC(CCCCN)C(N)=O` (some centres unmarked) [myotide] (Biotin-[X1][ξW][ξA][ξW][ξF][ξK]-NH2): the “expression of muscle proteins (myosin heavy chain I, caveolin-3, and myogenin)” value in the assay with C2C12 myoblast cells [1] is on record as “increased”. Also, the “expression of muscle proteins (myosin heavy chain I, caveolin-3, myogenin)” value in the assay on C2C12 myoblast cells [2] is reported as “concentration-dependently increased”.
